Results published in ChEMBL document CHEMBL1201862, “PubChem BioAssay data set” (2004).
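A five-concentration, 48-hour dose response in 96-well plates underlies each endpoint, interpolated linearly between surrounding concentrations. GI50 is the concentration that inhibits growth by half.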 Activity calls are given as the source filed them. Cut-off read from the data, not from the text of the source: active = GI50 up to about 1.1 µM and inactive = higher.

What was measured:
Test in all cases: inhibition of tumour cell growth, NCI panel, 48 h
786-0 = test system: 786-0
A498 = test system: A498
A549 = test system: A549
ACHN = test system: ACHN
CAKI-1 = test system: CAKI-1
CCRF-CEM = test system: CCRF-CEM
COLO 205 = test system: COLO 205
DLD-1 = test system: DLD-1
DMS-114 = test system: DMS-114
DMS-273 = test system: DMS-273
EKVX = test system: EKVX
HCC 2998 = test system: HCC 2998
HCT-116 = test system: HCT-116
HCT-15 = test system: HCT-15
HL-60 = test system: HL-60
HOP-62 = test system: HOP-62
HOP-92 = test system: HOP-92
HT-29 = test system: HT-29
IGROV-1 = test system: IGROV-1
K562 = test system: K562
KM-20L2 = test system: KM-20L2
KM12 = test system: KM12
LOX IMVI = test system: LOX IMVI
LXFL 529 = test system: LXFL 529
M14 = test system: M14
M19-MEL = test system: M19-MEL
MOLT-4 = test system: MOLT-4
Malme-3M = test system: Malme-3M
NCI-H226 = test system: NCI-H226
NCI-H23 = test system: NCI-H23
NCI-H460 = test system: NCI-H460
NCI-H522 = test system: NCI-H522
OVCAR-3 = test system: OVCAR-3
OVCAR-4 = test system: OVCAR-4
OVCAR-5 = test system: OVCAR-5
OVCAR-8 = test system: OVCAR-8
RPMI-8226 = test system: RPMI-8226
RXF 393 = test system: RXF 393
SF-268 = test system: SF-268
SF-295 = test system: SF-295
SF-539 = test system: SF-539
SK-MEL-28 = test system: SK-MEL-28
SK-MEL-2 = test system: SK-MEL-2
SK-MEL-5 = test system: SK-MEL-5
SK-OV-3 = test system: SK-OV-3
SN12C = test system: SN12C
SNB-19 = test system: SNB-19
SNB-75 = test system: SNB-75
SNB-78 = test system: SNB-78
SR = test system: SR
SW-620 = test system: SW-620
TK-10 = test system: TK-10
U-251 = test system: U-251
UACC-62 = test system: UACC-62
UO-31 = test system: UO-31
XF498 = test system: XF498
UACC-257 = test system: UACC-257
HOP-18 = test system: HOP-18

Measured: GI50

CC(=O)OC1CC2C(C)(C)OC(=O)CC(OC(C)=O)[C@]2(C)C2CCC3(C)C(=CCC3[C@H]3COC(=O)C3)[C@]12C (stereo not given in full)
> 100 µM: HCT-15
inactive: 786-0 > 100 µM | A498 96.4 µM | A549 55.6 µM | ACHN > 100 µM | CAKI-1 > 100 µM | CCRF-CEM 23.5 µM | COLO 205 > 100 µM | DLD-1 71.6 µM | DMS-114 70.1 µM | DMS-273 88.9 µM | EKVX 65.5 µM | HCC 2998 > 100 µM | HCT-116 61.5 µM | HL-60 50.1 µM | HOP-62 > 100 µM | HOP-92 26.1 µM | HT-29 60.5 µM | IGROV-1 > 100 µM | K562 43.9 µM | KM-20L2 > 100 µM | KM12 > 100 µM | LOX IMVI > 100 µM | LXFL 529 51.8 µM | M14 32.7 µM | M19-MEL 80.2 µM | MOLT-4 24.5 µM | Malme-3M > 100 µM | NCI-H226 > 100 µM | NCI-H23 > 100 µM | NCI-H460 > 100 µM | NCI-H522 83.4 µM | OVCAR-3 94 µM | OVCAR-4 > 100 µM | OVCAR-5 > 100 µM | OVCAR-8 > 100 µM | RPMI-8226 47.1 µM | RXF 393 > 100 µM | SF-268 > 100 µM | SF-295 41.5 µM | SF-539 > 100 µM | SK-MEL-28 42.6 µM | SK-MEL-2 72.3 µM | SK-MEL-5 > 100 µM | SK-OV-3 > 100 µM | SN12C > 100 µM | SNB-19 > 100 µM | SNB-75 46.6 µM | SNB-78 > 100 µM | SR 24 µM | SW-620 > 100 µM | TK-10 > 100 µM | U-251 > 100 µM | UACC-62 97.7 µM | UO-31 > 100 µM | XF498 > 100 µM

Cc1ccc(NC(=O)CC2C(=O)Nc3ccccc3[S+]2[O-])cc1C (stereo not given)
inactive: 786-0 24.8 µM | A498 > 100 µM | A549 > 100 µM | ACHN 73.8 µM | CAKI-1 > 100 µM | CCRF-CEM > 100 µM | DLD-1 > 100 µM | DMS-114 48.1 µM | DMS-273 28.1 µM | EKVX > 100 µM | HCC 2998 > 100 µM | HCT-116 49.2 µM | HL-60 41.7 µM | HOP-92 26 µM | HT-29 > 100 µM | IGROV-1 > 100 µM | K562 91.8 µM | KM-20L2 > 100 µM | LOX IMVI 48.6 µM | LXFL 529 88.3 µM | M14 > 100 µM | M19-MEL > 100 µM | MOLT-4 25.5 µM | Malme-3M > 100 µM | NCI-H226 > 100 µM | NCI-H23 63.5 µM | NCI-H460 > 100 µM | NCI-H522 32.1 µM | OVCAR-3 40.6 µM | OVCAR-4 16.4 µM | OVCAR-5 > 100 µM | OVCAR-8 34 µM | RPMI-8226 29 µM | RXF 393 22 µM | SF-268 75.2 µM | SF-295 > 100 µM | SF-539 23.7 µM | SK-MEL-28 > 100 µM | SK-MEL-2 > 100 µM | SK-MEL-5 73.8 µM | SN12C > 100 µM | SNB-19 46 µM | SNB-75 > 100 µM | SNB-78 > 100 µM | SR 63.5 µM | SW-620 66.4 µM | TK-10 > 100 µM | U-251 44.3 µM | UACC-257 > 100 µM | UACC-62 > 100 µM | UO-31 42.1 µM | XF498 > 100 µM
> 100 µM: HCT-15

CCCNc1ncnc2c1cnn2C
> 100 µM: HCT-15
inactive: 786-0 > 100 µM | A498 > 100 µM | A549 > 100 µM | ACHN > 100 µM | CAKI-1 > 100 µM | CCRF-CEM > 100 µM | COLO 205 > 100 µM | DMS-114 > 100 µM | DMS-273 > 100 µM | HCC 2998 > 100 µM | HCT-116 > 100 µM | HL-60 > 100 µM | HOP-18 > 100 µM | HOP-62 > 100 µM | HOP-92 > 100 µM | HT-29 > 100 µM | IGROV-1 > 100 µM | K562 > 100 µM | KM-20L2 > 100 µM | KM12 > 100 µM | LOX IMVI > 100 µM | M14 > 100 µM | M19-MEL > 100 µM | MOLT-4 > 100 µM | Malme-3M > 100 µM | NCI-H226 > 100 µM | NCI-H23 > 100 µM | NCI-H460 > 100 µM | NCI-H522 > 100 µM | OVCAR-3 > 100 µM | OVCAR-4 > 100 µM | OVCAR-5 > 100 µM | OVCAR-8 > 100 µM | RPMI-8226 > 100 µM | SF-268 > 100 µM | SF-295 > 100 µM | SF-539 > 100 µM | SK-MEL-28 > 100 µM | SK-MEL-2 > 100 µM | SK-MEL-5 > 100 µM | SK-OV-3 > 100 µM | SN12C > 100 µM | SNB-19 > 100 µM | SNB-75 51.3 µM | SNB-78 > 100 µM | SR > 100 µM | SW-620 > 100 µM | TK-10 > 100 µM | U-251 > 100 µM | UACC-257 > 100 µM | UACC-62 > 100 µM | XF498 > 100 µM

O=C1C=C[C@@]23CC1C(O)C[C@H]2C=Cc1ccccc13 (stereo not given in full)
82.2 µM: HCT-15
inactive: 786-0 > 100 µM | A498 > 100 µM | A549 > 100 µM | ACHN > 100 µM | CAKI-1 > 100 µM | CCRF-CEM > 100 µM | COLO 205 > 100 µM | DLD-1 45.6 µM | DMS-114 > 100 µM | HCC 2998 > 100 µM | HCT-116 > 100 µM | HL-60 > 100 µM | HOP-62 > 100 µM | HOP-92 > 100 µM | HT-29 > 100 µM | IGROV-1 > 100 µM | K562 50.2 µM | KM-20L2 > 100 µM | KM12 > 100 µM | LOX IMVI > 100 µM | LXFL 529 > 100 µM | M14 > 100 µM | M19-MEL > 100 µM | MOLT-4 > 100 µM | Malme-3M > 100 µM | NCI-H226 > 100 µM | NCI-H460 > 100 µM | NCI-H522 > 100 µM | OVCAR-3 > 100 µM | OVCAR-4 > 100 µM | OVCAR-5 > 100 µM | OVCAR-8 > 100 µM | RPMI-8226 > 100 µM | SF-268 > 100 µM | SF-295 > 100 µM | SF-539 > 100 µM | SK-MEL-2 > 100 µM | SK-MEL-5 > 100 µM | SK-OV-3 > 100 µM | SN12C > 100 µM | SNB-19 > 100 µM | SNB-75 91.6 µM | SW-620 > 100 µM | UACC-257 > 100 µM | UACC-62 34.8 µM | UO-31 > 100 µM | XF498 > 100 µM

CCC1C[N+]23CCc4c([nH]c5ccccc45)C2CC1CC3 (stereo not given)
inactive: ACHN > 100 µM | CAKI-1 49.1 µM | CCRF-CEM 51.2 µM | COLO 205 98.4 µM | DLD-1 76 µM | DMS-114 53.5 µM | DMS-273 55.5 µM | EKVX > 100 µM | HCC 2998 > 100 µM | HCT-116 > 100 µM | HOP-62 > 100 µM | HOP-92 82.6 µM | HT-29 > 100 µM | IGROV-1 91.6 µM | K562 70.8 µM | KM-20L2 97.1 µM | KM12 64.7 µM | LOX IMVI 68.1 µM | LXFL 529 33.8 µM | M14 > 100 µM | M19-MEL 52.5 µM | MOLT-4 29.8 µM | Malme-3M 33.7 µM | NCI-H226 45.9 µM | NCI-H23 69.2 µM | NCI-H460 49.4 µM | NCI-H522 55.1 µM | OVCAR-3 55.5 µM | OVCAR-4 81.5 µM | OVCAR-5 > 100 µM | OVCAR-8 81.3 µM | RPMI-8226 38.8 µM | RXF 393 > 100 µM | SF-268 > 100 µM | SF-295 > 100 µM | SK-MEL-28 > 100 µM | SK-MEL-2 > 100 µM | SK-MEL-5 22.4 µM | SK-OV-3 > 100 µM | SN12C 76.4 µM | SNB-75 98.9 µM | SR 39.3 µM | SW-620 > 100 µM | TK-10 74.3 µM | U-251 98.6 µM | UACC-257 50.1 µM | UACC-62 > 100 µM | UO-31 41.4 µM | XF498 42.9 µM
68.2 µM: HCT-15
